The text below walks through data of patent US20170044208A1, “SELECTIVE GLUCOCORTICOID RECEPTOR LIGANDS” (The University of Manchester, priority 2013, published 2017).

Data set [1] relates to osteoblast activity. Description: Rat bone formation assay, serum osteocalcin. The following applies: daily oral, terminal (35 day) plasma, FIG. 9. It counts as in vivo.
Description: For the analysis of bone metabolism, and its regulation by orally administered GC, a rat bone formation assay was used.
Terminal (35 day) plasma was harvested, and osteocalcin measured, as an integrated measure of osteoblast activity across the skeleton.
Data set [2] has as its system endosteal bone formation. The data set is described as follows: Rat endosteal bone increment. It counts as in vivo. The following applies: daily oral dose, FIG. 10. The source says: However, osteoblast activity is not uniform across the skeleton, which may result in either over, or under estimation of the steroid effect. In young, growing, rats long bone remodelling during bone growth offers an attractive model to study active bone formation as the endosteal surface has new bone formation as the diameter of the shaft decreases due to endosteal bone formation, and periosteal bone resorption. As shown in FIG. 11 (CT reconstruction) as long bones grow the diameter of the shaft at the growing end (20% mark) is greater than that towards the middle of the bone (30% and 40% marks) due to loss of bone at the outer surface, or periosteal surface, and deposition of bone, due to osteoblast action, on the inner surface, or endosteal surface.
In contrast, there was no effect of Dex124 seen until 100 mg/Kg, giving an estimated IC50 of approximately 90 mg/Kg.

The target in data set [3] is T1, mineralocorticoid receptor (MR) (Homo sapiens, UniProt P08235).
T1 sequence (P08235 1-984): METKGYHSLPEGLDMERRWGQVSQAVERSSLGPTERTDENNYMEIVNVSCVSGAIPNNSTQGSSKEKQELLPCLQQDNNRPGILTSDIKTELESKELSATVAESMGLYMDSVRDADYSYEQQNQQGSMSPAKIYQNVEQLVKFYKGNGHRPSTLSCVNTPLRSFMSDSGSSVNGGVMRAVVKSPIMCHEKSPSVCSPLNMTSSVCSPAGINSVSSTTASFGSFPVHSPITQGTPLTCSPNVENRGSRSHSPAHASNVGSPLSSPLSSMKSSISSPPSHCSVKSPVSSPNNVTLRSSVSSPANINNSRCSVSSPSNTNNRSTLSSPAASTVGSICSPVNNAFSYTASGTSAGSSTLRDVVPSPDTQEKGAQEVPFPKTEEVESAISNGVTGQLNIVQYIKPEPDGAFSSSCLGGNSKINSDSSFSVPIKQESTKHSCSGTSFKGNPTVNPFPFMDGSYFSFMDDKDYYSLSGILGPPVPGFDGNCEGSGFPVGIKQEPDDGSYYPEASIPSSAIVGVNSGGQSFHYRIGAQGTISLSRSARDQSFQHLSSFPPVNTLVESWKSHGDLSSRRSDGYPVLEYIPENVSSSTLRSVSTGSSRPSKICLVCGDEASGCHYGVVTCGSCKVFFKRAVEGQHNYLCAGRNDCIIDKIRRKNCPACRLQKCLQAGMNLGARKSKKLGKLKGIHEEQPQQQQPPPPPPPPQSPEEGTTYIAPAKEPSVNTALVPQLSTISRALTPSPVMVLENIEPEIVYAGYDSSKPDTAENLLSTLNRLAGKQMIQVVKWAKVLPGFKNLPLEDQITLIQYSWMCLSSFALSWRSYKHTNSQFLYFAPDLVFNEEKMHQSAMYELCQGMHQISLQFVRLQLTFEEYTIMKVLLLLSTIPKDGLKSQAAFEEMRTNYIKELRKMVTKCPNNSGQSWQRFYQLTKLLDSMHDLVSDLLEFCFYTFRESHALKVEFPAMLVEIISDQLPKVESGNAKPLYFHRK
The data set is described as follows: Steroid receptor cross-reactivity, mineralocorticoid receptor. It counts as cell-based. Conditions: FIG. 3. An excerpt: There is a high degree of structural similarity between the various human steroid receptors. Ligands may therefore cross-react with other members of the steroid receptor family. In particular progesterone receptor and mineralocorticoid receptor show the highest structural similarity.

Data set [4] has as its system rat adjuvant arthritis. The data set is described as follows: Established rat adjuvant arthritis. The data set is classed as in vivo. Conditions: increasing doses, FIG. 7. The source says: Established rat arthritis was chosen as the most relevant predictive model for chronic inflammatory arthritis in man. The disease is initiated with a caudal injection of complete Freund's adjuvant and the disease is established after 14 days. Anti-inflammatory molecules are given orally, usually once a day and after 7 days the animals are sacrificed. Paw volumes are the primary measurement and as a secondary measure inflammatory lesions are scored at a number of sites. At autopsy adrenal, spleen and thymus weights are recorded.
The arthritis score for the rats was used in these studies, as the inflammatory disease consists of both destructive inflammatory arthritis, but also systemic manifestations.
This analysis uses the area under the curve of arthritis score over the course of the experiment to yield a single, integrated measure for each experimental animal. The area under the curve of the vehicle treated animal is indicated on the graph for comparison purposes, but marked at an arbitrary log dose.

The target in data set [5] is T2, Glucocorticoid Receptor (GR) (Homo sapiens, UniProt P04150).
T2 construct: Cells were transfected the next day with MMTV-Luc (5 μg) and pGL4-hRLuc (0.1 μg); endogenous in cells; host or cells: HeLa
T2 sequence (P04150 1-777): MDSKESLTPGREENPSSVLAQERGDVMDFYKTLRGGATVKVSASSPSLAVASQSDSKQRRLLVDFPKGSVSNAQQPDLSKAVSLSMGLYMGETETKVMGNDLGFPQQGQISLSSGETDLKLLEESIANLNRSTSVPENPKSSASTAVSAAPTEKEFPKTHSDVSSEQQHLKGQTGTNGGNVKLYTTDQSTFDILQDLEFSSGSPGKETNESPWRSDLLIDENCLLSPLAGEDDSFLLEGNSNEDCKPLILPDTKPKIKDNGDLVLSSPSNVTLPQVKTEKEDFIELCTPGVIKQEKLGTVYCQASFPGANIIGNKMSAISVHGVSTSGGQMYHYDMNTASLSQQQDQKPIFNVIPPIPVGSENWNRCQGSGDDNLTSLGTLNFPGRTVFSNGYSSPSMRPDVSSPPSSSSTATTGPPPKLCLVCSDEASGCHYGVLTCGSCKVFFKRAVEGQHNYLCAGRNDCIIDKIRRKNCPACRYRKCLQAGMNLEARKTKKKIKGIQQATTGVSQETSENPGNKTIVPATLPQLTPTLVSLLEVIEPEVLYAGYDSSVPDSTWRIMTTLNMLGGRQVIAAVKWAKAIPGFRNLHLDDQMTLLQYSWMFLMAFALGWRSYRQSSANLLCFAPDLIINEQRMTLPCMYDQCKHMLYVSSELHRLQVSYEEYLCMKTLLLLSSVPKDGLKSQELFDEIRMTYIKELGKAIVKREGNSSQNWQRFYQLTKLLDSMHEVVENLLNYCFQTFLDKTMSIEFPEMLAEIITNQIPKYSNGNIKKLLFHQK
Description: Transactivation assay (MMTV-Luc reporter in HeLa cells). The following applies: for Emax / EC50: HeLa; for Emax: 16 h, read-out: TA Max %; for EC50: concentration for half-maximal transactivation, MMTV-Luc, 16 hours, mean, read-out: TA EC50. The data set is classed as cell-based. As for the experimental part:
HeLa cells were seeded at 80×10^4 cells/dish in 100 mm dishes. Cells were transfected the next day with MMTV-Luc (5 μg) and pGL4-hRLuc (0.1 μg), in 250 μL of Opti-MEM I using FuGENE HD (15 μL). After 24 hours, cells were trypsinized and seeded into 96-well plates at a density of 8-10×10^4 cells/mL.
Following overnight incubation to allow attachment, cells were treated with the required concentration of compounds, then further incubated for 16 hours. Media was aspirated and cells lysed in 40 μL of 1×PLB.
(§1) Firefly and Renilla luciferase activity was measured using the Dual Luciferase Reporter system following the manufacturer's protocol.
(§2) IC50 and EC50 values were calculated by using GraphPad Prism 5.0. Briefly, luminescence values for luciferase were normalised using the Renilla luminescence values. The normalised values were input into GraphPad Prism 5.0. Non-linear regression analysis was carried out using the “log(concentration) vs. response” equation of the software, with a Hill slope coefficient fixed at 1.
(§3) IC50 and EC50 values are mean values in nM of all IC50/EC50 values for the compound. Max % values are mean values of the Max% activity.

Data set [6] has as its system NFkB. The data set is described as follows: Transrepression assay (NFκB-LUC reporter in HeLa cells, TNF stimulated). It counts as cell-based. Conditions: for IC50 / Emax: Homo sapiens, HeLa; for Emax: 16 h, read-out: TR Max %. As for the experimental part: HeLa cells were seeded at 80×10^4 cells/dish in 100 mm dishes. Cells were transfected the next day with NFκB-LUC reporter (5 μg) and pGL4-hRLuc (0.1 μg), in 0.25 mL of Opti-MEM I using FuGENE HD (15 μL). After 24 hours, cells were trypsinized and seeded in to 24-well plates at a density of 8-10×10^4 cells/mL. Following overnight incubation, cells were starved for a further 24 hours in DMEM.
On the day of the experiment, compounds were added to cells one hour prior to the addition of […] (0.5 ng/mL). After a further 16 hours, cells were washed twice with ice-cold PBS, then lysed with 100 μL of 1×PLB.
as §1, §2, §3

Data set [7] concerns the target T3, GR (Homo sapiens, UniProt P04150).
T3 sequence (P04150 1-777): T2 sequence (P04150 1-777)
The following applies: further analyses, Vayssiere et al. 1997; cited from earlier work.

In data set [8] the target is T4, progesterone receptor (Homo sapiens, UniProt P06401).
T4 sequence (P06401 1-933): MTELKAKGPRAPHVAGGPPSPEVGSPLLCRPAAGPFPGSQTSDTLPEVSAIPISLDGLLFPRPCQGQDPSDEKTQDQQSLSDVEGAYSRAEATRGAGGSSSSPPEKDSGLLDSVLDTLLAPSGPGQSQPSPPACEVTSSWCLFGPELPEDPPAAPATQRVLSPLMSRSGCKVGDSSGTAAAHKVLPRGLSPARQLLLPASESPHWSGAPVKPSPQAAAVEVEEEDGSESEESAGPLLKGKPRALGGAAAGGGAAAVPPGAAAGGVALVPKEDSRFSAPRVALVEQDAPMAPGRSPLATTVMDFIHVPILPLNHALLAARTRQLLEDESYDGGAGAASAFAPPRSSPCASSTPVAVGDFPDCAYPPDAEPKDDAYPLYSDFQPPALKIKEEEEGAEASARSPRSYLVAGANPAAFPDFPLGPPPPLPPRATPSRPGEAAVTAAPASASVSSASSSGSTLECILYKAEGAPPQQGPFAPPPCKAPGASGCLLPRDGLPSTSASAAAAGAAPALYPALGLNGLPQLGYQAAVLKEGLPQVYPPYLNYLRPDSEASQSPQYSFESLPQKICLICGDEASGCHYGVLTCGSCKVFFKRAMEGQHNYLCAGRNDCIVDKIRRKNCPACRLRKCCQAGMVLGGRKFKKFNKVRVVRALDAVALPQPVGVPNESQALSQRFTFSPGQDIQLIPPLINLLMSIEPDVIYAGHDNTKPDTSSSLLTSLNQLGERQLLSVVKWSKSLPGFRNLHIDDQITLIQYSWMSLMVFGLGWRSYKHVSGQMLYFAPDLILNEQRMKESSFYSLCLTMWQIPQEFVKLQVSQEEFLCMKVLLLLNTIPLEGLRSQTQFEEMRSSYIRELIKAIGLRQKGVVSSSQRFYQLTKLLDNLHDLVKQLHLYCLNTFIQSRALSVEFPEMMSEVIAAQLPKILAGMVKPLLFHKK
Conditions: cited from earlier work.

Data set [9] has as its system apoptosis. Conditions: cited from earlier work.
The mark [10] stands for this setting: concentration for half-maximal repression of NFkB, TNF 0.5 ng/mL, 16 hours, mean, read-out: TR IC50.

Like-named read-outs stand apart in the source and are kept apart here.

For the compound `C[C@]12C=CC(=O)C=C1CC[C@@H]1[C@@H]2[C@@H](O)C[C@@]2(C)[C@H]1CC[C@]2(O)C(=O)CO` [Pred, prednisolone], in data set [1], the osteocalcin concentration result was “dose-dependent inhibition of osteocalcin concentration”. In addition, the “IC50 for decrease in bone increment” value in [2] came out at 7.8 mg/kg. Also, in data set [3], the “activity on mineralocorticoid receptor” value is listed as “significant activity”. For the same compound, in [4], the “arthritis clinical score (AUC)” value was “inhibit arthritis clinical score”. The compound further yielded a TA % in [5] (comparison table, against maximal activation seen with dexamethasone) of 68%. Besides, the concentration for half-maximal inhibition (IC50) in data set [6] (comparison table, half-maximal repression of NFkB, multiple experiments, read-out: IC50) was 12.9 nM. The same compound returned a TR % in data set [6] (comparison table, maximal NFkB repression compared to Dexamethasone) of 99%.
Turning to `C[C@@H]1C[C@H]2[C@@H]3CCC4=CC(=O)C=C[C@]4(C)[C@@]3(F)[C@@H](O)C[C@]2(C)[C@H]1C(=O)CC#N` [RU24858], the GR agonist character result in data set [7] is given as “low potency, low efficacy full agonist”. The progesterone receptor activation entry in [8] is “activating the progesterone receptor”. The induction of apoptosis result in data set [9] is “does not induce apoptosis”.
In the case of `C[C@@H]1C[C@H]2[C@@H]3CCC4=CC(=O)C=C[C@]4(C)[C@@]3(F)[C@@H](O)C[C@]2(C)[C@@]1(O)C(=O)NCCOc1nc2ccccc2o1` [Compound 10], in data set [5], the Emax came to 4.79% and the EC50 worked out at 3390 nM. In addition, the Emax in data set [6] worked out at 55.1%. Further, the IC50 in data set [6] (setting [10]) was determined as 35.4 nM.
Take `C[C@@H]1C[C@H]2[C@@H]3CCC4=CC(=O)C=C[C@]4(C)[C@@]3(F)[C@@H](O)C[C@]2(C)[C@@]1(O)c1csc(NC(=O)c2cccnc2)n1` [Compound 32]: in data set [5], the Emax turned out to be 0.03% and the EC50 worked out at 2230 nM. For the same compound, in data set [6], the Emax amounted to 28.5%. The IC50 in [6] (setting [10]) turned out to be 55.2 nM.
For the compound `C[C@@H]1C[C@H]2[C@@H]3CCC4=CC(=O)C=C[C@]4(C)[C@@]3(F)[C@@H](O)C[C@]2(C)[C@@]1(O)C(=O)NCCCc1ccc(F)cc1` [Compound 1], the Emax was determined as 21.3% in data set [5] and 90.8% in data set [6]. Besides, in [5], the EC50 amounted to 868 nM. Further, in data set [6] (setting [10]), the IC50 was found to be 8.41 nM.
The matching figures for `C[C@@H]1C[C@H]2[C@@H]3CCC4=CC(=O)C=C[C@]4(C)[C@@]3(F)[C@@H](O)C[C@]2(C)[C@@]1(O)c1csc(NC(=O)c2ccc(F)nc2)n1` [Compound 47]: 7.41%, 48%, 669 nM and 22.9 nM.

Usually IC50 stands for the midpoint of a concentration-inhibition curve. Usually EC50 stands for the concentration needed to bring the measured effect to its halfway point.
